Results from ChEMBL document CHEMBL5365419, “Identification of a Protein Arginine Methyltransferase 7 (PRMT7)/Protein Arginine Methyltransferase 9 (PRMT9) Inhibitor” (J Med Chem, 2023).
Activity calls are given as the source filed them. The calls are words filed in the database; no cut-off is given here.

What was measured:
[1] = target: T1, Protein arginine N-methyltransferase 7 (Homo sapiens) (UniProt Q9NVM4); experiment: Inhibition of PRMT7 catalysed methylation of HNRNPA1 at R194 residue in HEK293T cells assessed as increase in ratio of abundance of unmethylated over methylated peptides measured after 24 to 48 hrs by UHPLC- MS/MS analysis; format: cell-based; conditions: dose 10-50 µM, time 24-48 hrs
T1 sequence (whole entry): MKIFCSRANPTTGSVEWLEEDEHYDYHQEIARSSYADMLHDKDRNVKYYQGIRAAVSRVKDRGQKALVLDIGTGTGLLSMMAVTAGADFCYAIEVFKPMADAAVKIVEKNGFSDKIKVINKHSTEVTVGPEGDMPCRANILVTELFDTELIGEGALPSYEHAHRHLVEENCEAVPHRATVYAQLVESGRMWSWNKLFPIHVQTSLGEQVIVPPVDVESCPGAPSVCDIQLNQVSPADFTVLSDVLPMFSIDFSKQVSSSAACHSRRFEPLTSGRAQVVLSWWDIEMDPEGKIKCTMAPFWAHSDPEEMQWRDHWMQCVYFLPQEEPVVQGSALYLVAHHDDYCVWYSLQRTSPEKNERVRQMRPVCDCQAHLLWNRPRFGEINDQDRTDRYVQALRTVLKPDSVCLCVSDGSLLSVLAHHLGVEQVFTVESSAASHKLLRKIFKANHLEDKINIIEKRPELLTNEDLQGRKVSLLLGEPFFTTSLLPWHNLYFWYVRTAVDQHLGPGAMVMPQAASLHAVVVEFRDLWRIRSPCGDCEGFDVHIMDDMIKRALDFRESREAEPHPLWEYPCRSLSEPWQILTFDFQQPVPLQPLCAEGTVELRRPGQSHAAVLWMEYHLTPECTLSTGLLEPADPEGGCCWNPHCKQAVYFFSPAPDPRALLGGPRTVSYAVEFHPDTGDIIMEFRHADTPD

[2] = target: T1, Protein arginine N-methyltransferase 7 (Homo sapiens); experiment: Inhibition of PRMT7 catalysed methylation of HSP70 at R469 residue in HEK293T cells assessed as increase in ratio of abundance of unmethylated over methylated peptides at 10 to 50 uM by UHPLC- MS/MS analysis; format: cell-based; conditions: dose 10-50 µM, time 24-48 hrs, TDE = time-dependent effect
[3] = target: T2, Histone-lysine N-methyltransferase SMYD3 (Homo sapiens) (UniProt Q9H7B4); experiment: Inhibition of C-terminal His/GST-tagged human recombinant SMYD3 (2 to 428 residues) at higher concentration using 3H-SAM as substrate incubated for 60 mins by scintillation counter analysis
T2 sequence (whole entry): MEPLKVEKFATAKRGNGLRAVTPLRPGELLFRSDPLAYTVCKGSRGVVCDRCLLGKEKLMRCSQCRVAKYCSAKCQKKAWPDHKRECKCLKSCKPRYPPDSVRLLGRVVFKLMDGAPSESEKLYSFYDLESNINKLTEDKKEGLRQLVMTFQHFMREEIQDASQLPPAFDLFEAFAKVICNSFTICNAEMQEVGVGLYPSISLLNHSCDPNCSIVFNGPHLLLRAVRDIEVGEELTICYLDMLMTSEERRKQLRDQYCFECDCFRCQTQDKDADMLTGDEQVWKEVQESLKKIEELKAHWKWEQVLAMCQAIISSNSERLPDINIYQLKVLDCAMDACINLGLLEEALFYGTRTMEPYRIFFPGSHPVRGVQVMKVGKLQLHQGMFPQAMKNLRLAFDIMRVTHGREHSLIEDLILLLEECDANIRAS

[4] = target: Histone-lysine N-methyltransferase ASH1L (Homo sapiens) (UniProt Q9NR48); experiment: Inhibition of N-terminal His-tagged human recombinant ASH1L (2046 to 2330 residues) at higher concentration using oligo nucleosomes as substrate and 3H-SAM as cosubstrate incubated for 60 mins by scintillation counter analysis
[5] = target: Histone-lysine N-methyltransferase, H3 lysine-79 specific (Homo sapiens) (UniProt Q8TEK3); experiment: Inhibition of N-terminal/C-terminal His/GST-tagged human recombinant DOT1L (1 to 416 residues) at 10 uM using oligo nucleosome as substrate and 3H-SAM as cosubstrate incubated for 60 mins by scintillation counter analysis
Sequence of Histone-lysine N-methyltransferase, H3 lysine-79 specific (Homo sapiens) (Q8TEK3 whole entry, looked up, the tested form may be a part): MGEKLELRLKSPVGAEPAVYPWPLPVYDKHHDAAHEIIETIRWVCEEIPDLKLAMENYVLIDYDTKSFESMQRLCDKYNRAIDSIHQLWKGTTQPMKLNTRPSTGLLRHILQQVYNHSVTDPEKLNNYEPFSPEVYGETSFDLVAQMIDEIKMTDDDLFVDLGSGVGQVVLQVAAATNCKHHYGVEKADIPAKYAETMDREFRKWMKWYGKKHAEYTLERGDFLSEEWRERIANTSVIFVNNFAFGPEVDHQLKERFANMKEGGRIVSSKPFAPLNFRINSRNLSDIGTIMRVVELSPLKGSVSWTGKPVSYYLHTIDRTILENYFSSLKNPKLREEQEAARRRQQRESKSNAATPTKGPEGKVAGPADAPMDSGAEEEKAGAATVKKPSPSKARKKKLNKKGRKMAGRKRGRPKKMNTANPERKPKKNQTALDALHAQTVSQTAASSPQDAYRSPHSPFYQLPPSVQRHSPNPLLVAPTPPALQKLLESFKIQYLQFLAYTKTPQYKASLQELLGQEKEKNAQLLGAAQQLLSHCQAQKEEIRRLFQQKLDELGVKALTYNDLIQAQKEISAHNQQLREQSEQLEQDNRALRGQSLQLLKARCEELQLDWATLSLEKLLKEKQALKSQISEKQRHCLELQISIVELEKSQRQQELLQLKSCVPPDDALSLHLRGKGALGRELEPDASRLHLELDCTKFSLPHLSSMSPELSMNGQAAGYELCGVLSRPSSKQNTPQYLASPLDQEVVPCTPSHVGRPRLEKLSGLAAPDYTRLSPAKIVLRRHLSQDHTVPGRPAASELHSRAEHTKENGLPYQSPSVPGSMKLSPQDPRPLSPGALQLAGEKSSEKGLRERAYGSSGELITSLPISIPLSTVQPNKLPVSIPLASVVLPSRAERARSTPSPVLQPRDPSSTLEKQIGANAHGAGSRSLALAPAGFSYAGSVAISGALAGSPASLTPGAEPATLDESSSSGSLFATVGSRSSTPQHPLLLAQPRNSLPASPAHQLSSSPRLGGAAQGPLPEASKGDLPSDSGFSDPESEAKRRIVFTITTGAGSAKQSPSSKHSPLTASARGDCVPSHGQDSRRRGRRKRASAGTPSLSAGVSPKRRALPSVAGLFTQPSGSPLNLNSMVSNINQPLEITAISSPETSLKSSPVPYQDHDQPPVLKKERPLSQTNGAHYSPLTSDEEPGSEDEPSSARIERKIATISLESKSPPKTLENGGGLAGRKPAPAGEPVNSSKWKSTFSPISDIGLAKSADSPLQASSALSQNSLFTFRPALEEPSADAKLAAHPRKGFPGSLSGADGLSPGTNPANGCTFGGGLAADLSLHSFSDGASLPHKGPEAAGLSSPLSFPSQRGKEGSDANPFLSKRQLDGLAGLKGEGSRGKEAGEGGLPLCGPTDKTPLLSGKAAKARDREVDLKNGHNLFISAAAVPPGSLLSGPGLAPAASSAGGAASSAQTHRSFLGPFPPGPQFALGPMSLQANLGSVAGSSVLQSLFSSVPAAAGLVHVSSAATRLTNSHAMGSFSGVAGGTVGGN

Homo sapiens = species on record: Homo sapiens; experiment: Inhibition of N-terminal/C-terminal His-tagged human recombinant MLL1 (3745 to 3969 residues)/WDR5 (22 to 334 residues)/RbBP5 (1 to 538 residues)/ASH2L (2 to 534 residues)/DPY-30 (1 to 99 residues) complex at higher concentration using oligo nucleosomes as substrate and 3H-SAM as cosubstrate incubated for 60 mins by scintillation counter analysis

Q: Which inhibition [1] does the source give for `COC(=O)c1cc(O)c2cc(NC(=O)NCCCNC(=N)NC[C@H]3O[C@@H](n4cnc5c(N)ncnc54)[C@H](O)[C@@H]3O)cc(C(F)(F)F)c2c1` here?
A: Dose-Dependent Effect

Q: What about the inhibition [2] of the same molecule?
A: Tde

Q: What about the inhibition [3] of the same molecule?
A: inactive

Q: And the inhibition [4]?
A: inactive

Q: What about the inhibition [5] of the same molecule?
A: Active

Q: And the inhibition (Homo sapiens)?
A: inactive
